According to ChEMBL document CHEMBL4823308, “Optimization of Triarylpyridinone Inhibitors of the Main Protease of SARS-CoV-2 to Low-Nanomolar Antiviral Potency” (ACS Med Chem Lett, 2021):
Values after ≈ are worked out from the molar mass of the structure shown.

What was measured:
[1] = Aqueous solubility of the compound in Britton-Robinson buffer at pH 6.5 after 48 hrs by shake flask method; assay type: physicochemical
in vitro [2] = conditions: human, 16HBE14o- cells
Description: (§1) Cytotoxicity against human 16HBE14o- after 72 hrs by MTT assay

[3] = pampa, pH 7.4, 18 h
Description: (§2) Permeability of compound in PBS at pH 7.4 after 18 hrs by PAMPA

in vitro [4] = conditions: chlorocebus sabaeus, Vero E6 cells
Description: (§3) Cytotoxicity against African green monkey Vero E6 cells after 72 hrs by MTT assay

in vitro [5] = conditions: PAMPA, pH 7.4
Description: as §2

Vero C1008 = conditions: chlorocebus sabaeus, vero c1008, 72 h
Description: as §3

16HBE14o- = conditions: human, 72 h
Description: as §1

SARS-CoV-2 = conditions: 16hbe14o-
Description: Antiviral activity against SARS-CoV-2 infected in 16HBE14o- cells assessed as inhibition of viral replication after 1 day by Nano-Glo luciferase assay

Row | Structure (SMILES) | solubility thermodynamic at 48 h [1] | CC50 at 72 h (in vitro [2]) | permeability [3] | CC50 (Vero C1008) | other results
1 | N#Cc1ccccc1-c1cc(-c2cc(Cl)cc(OCCC(F)(F)F)c2)c(=O)n(-c2cccnc2)c1 | 0.025 mg/mL (≈ 50.4 µM) | 25 µM | 4 10^-6 cm/s | – | CC50 at 72 h (in vitro [4]): 22 µM
2 | O=C(N[C@H](CO)[C@H](O)c1ccc([N+](=O)[O-])cc1)C(Cl)Cl [CHLORAMPHENICOL] | – | – | – | – | Papp at 18 h (in vitro [5]): 50 nm/s
3 | Cn1cc(-c2cc(-c3cc(Cl)cc(OCc4scnc4C(F)(F)F)c3)c(=O)n(-c3cccnc3)c2)c(=O)[nH]c1=O | 0.0248 mg/mL (≈ 42.2 µM) | > 100 µM | 1.16 10^-6 cm/s | > 100 µM | –
4 | Cc1scnc1COc1cc(Cl)cc(-c2cc(-c3c[nH]c(=O)[nH]c3=O)cn(-c3cccnc3)c2=O)c1 | – | – | – | > 100 µM | CC50 (16HBE14o-): 22 µM
5 | Cc1ocnc1COc1cc(Cl)cc(-c2cc(-c3c[nH]c(=O)[nH]c3=O)cn(-c3cccnc3)c2=O)c1 | 0.0076 mg/mL (≈ 15.1 µM) | – | – | – | –
6 | N#Cc1ccccc1-c1cc(-c2cc(Cl)cc(OCC3CC3)c2)c(=O)n(-c2cccnc2)c1 | 0.003 mg/mL (≈ 6.61 µM) | > 100 µM | 4.27 10^-6 cm/s | – | CC50 at 72 h (in vitro [4]): > 100 µM
7 | O=c1[nH]cc(-c2cc(-c3cc(Cl)c(F)c(OCc4ccccc4Cl)c3)c(=O)n(-c3cccnc3)c2)c(=O)[nH]1 | 0.0218 mg/mL (≈ 39.5 µM) | > 95 µM | 0.73 10^-6 cm/s | > 80 µM | –
8 | CCC(CC)COC(=O)[C@H](C)N[P@](=O)(OC[C@H]1O[C@@](C#N)(c2ccc3c(N)ncnn23)[C@H](O)[C@@H]1O)Oc1ccccc1 | – | 41 µM | – | – | CC50 at 72 h (in vitro [4]): 72 µM
9 | O=c1[nH]cc(-c2cc(-c3cc(Cl)cc(OCc4scnc4C(F)(F)F)c3)c(=O)n(-c3cccnc3)c2)c(=O)[nH]1 | – | > 100 µM | – | > 100 µM | EC50 (SARS-CoV-2): Not Active
10 | Cc1ocnc1COc1cc(Cl)cc(-c2cc(-c3ccccc3C#N)cn(-c3cccnc3)c2=O)c1 | 0.0131 mg/mL (≈ 26.5 µM) | – | 3.04 10^-6 cm/s | – | –
11 | Cn1cc(-c2cc(-c3cc(Cl)c(F)c(OCc4ccccc4Cl)c3)c(=O)n(-c3cccnc3)c2)c(=O)[nH]c1=O | 0.117 mg/mL (≈ 206 µM) | > 32.5 µM | – | > 32.5 µM | –
12 | Cn1cc(-c2cc(-c3cc(Cl)cc(OCCC(F)(F)F)c3)c(=O)n(-c3cccnc3)c2)c(=O)[nH]c1=O | 0.057 mg/mL (≈ 110 µM) | 95 µM | 2.26 10^-6 cm/s | > 100 µM | –
13 | O=c1[nH]cc(-c2cc(-c3cc(Cl)cc(OCc4ocnc4C(F)(F)F)c3)c(=O)n(-c3cccnc3)c2)c(=O)[nH]1 | – | > 100 µM | 0.57 10^-6 cm/s | > 100 µM | EC50 (SARS-CoV-2): Not Active
14 | Cn1c(=O)c2[nH]cnc2n(C)c1=O.O [THEOPHYLLINE] | – | – | – | – | Papp at 18 h (in vitro [5]): 3 nm/s
15 | Cn1cc(-c2cc(-c3cc(Cl)cc(OCc4ocnc4C(F)(F)F)c3)c(=O)n(-c3cccnc3)c2)c(=O)[nH]c1=O | 0.0345 mg/mL (≈ 60.3 µM) | – | 1.03 10^-6 cm/s | – | –
16 | CCCOc1cc(Cl)cc(-c2cc(-c3ccccc3C#N)cn(-c3cccnc3)c2=O)c1 | – | 20 µM | – | – | CC50 at 72 h (in vitro [4]): 22 µM
17 | Cc1ncoc1COc1cc(Cl)cc(-c2cc(-c3c[nH]c(=O)[nH]c3=O)cn(-c3cccnc3)c2=O)c1 | 0.168 mg/mL (≈ 333 µM) | – | 0.24 10^-6 cm/s | – | –
18 | Cn1cc(-c2cc(-c3cc(Cl)cc(OCC4CC4)c3)c(=O)n(-c3cccnc3)c2)c(=O)[nH]c1=O | 0.0142 mg/mL (≈ 29.8 µM) | > 100 µM | 3.25 10^-6 cm/s | 82 µM | –
